Assay results as given in US12570666B2, “Furoindazole derivatives” (Bayer Aktiengesellschaft, priority 2019, dated 2026).

Biological target: T1, human GPR84 receptor (Homo sapiens, UniProt Q9NQS5)
T1 construct: frozen aliquots prepared by acCELLerate; host or cells: CHO-K1
Experiment: cAMP HTRF assay for identification of cellular GPR84 antagonists
Type: cell-based
Settings: CHO-K1 cells stably expressing human GPR84; Forskolin + agonist 6-OAU (EC80); average or median values
Outline: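 IC50 came from 4-parameter fits over 20 μM–0.07 nM (11 points, duplicate), normalized between DMSO (0%) and agonist-free (100% inhibition) wells. Readout: cAMP-d2/Eu-cryptate HTRF in hGPR84 CHO-K1 cells given forskolin plus agonist, compound preincubated 30 min at room temperature.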

T1 sequence (Q9NQS5 whole entry): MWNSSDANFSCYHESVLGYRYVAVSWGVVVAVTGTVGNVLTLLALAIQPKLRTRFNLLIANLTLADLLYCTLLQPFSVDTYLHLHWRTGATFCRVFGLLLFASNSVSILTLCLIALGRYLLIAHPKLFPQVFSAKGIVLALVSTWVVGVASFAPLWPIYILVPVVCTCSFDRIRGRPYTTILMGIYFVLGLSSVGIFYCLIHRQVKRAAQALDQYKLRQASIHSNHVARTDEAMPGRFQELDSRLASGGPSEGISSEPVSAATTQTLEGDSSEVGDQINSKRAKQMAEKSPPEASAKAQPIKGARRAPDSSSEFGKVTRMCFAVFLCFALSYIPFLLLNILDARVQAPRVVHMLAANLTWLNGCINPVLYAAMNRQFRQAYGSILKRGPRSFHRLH

IC50 [nM] | SMILES
440 | Cc1cc(Cn2cc3c(n2)-c2c(oc(C(=O)NC[C@@H]4COCCO4)c2C)CC3)cc(C)n1 [Example 82, 2-[(2,6-dimethylpyridin-4-yl)methyl]-N-[(2R)-1,4-dioxan-2-ylmethyl]-8-methyl-4,5-dihydro-2H-furo[2,3-g]indazole-7-carboxamide]
7 | Cc1ccc(Cn2cc3c(n2)-c2c(oc(C(=O)NC[C@@H]4CCCO4)c2C(F)(F)F)CC32CC2)cn1 [Example 213, 2′-[(6-methylpyridin-3-yl)methyl]-N-{[(2S)-oxolan-2-yl]methyl}-8′-(trifluoromethyl)-2′,5′-dihydrospiro[cyclopropane-1,4′-furo[2,3-g]indazole]-7′-carboxamide]
30 | O=C(NC[C@@H]1CCCO1)c1oc2c(c1C1CC1)-c1nn(C[C@H]3COCCO3)cc1CC2 [Example 194]
881 | O=C(NCc1cncs1)c1oc2c(c1C(F)(F)F)-c1nn(C[C@H]3COCCO3)cc1CC2 [Example 230, 2-[(2S)-1,4-Dioxan-2-ylmethyl]-N-(1,3-thiazol-5-ylmethyl)-8-(trifluormethyl)-4,5-dihydro-2H-furo[2,3-g]indazol-7-carboxamide]
1390 | Cc1ccnc(CCNC(=O)c2oc3c(c2C(F)(F)F)-c2nn(C[C@H]4COCCO4)cc2CC3)c1 [Example 231, 2-[(2S)-1,4-Dioxan-2-ylmethyl]-N-[2-(4-methylpyridin-2-yl)ethyl]-8-(trifluormethyl)-4,5-dihydro-2H-furo[2,3-g]indazol-7-carboxamide]
97 | Cc1c(C(=O)NCC2CC(F)(F)CO2)oc2c1-c1nn(Cc3ccccn3)cc1CC2 (racemic) [Example 174]
10 | Cc1ccc(Cn2cc3c(n2)-c2c(oc(C(=O)NC[C@@H]4COCCO4)c2C(F)(F)F)CC32CCC2)nc1 [Example 278, N-[(2R)-1,4-Dioxan-2-ylmethyl]-2′-[(5-methylpyridin-2-yl)methyl]-8′-(trifluormethyl)-2′,5′-dihydrospiro[cyclobutan-1,4′-furo[2,3-g]indazol]-7′-carboxamide]
65 | Cc1ccc(Cn2cc3c(n2)-c2c(oc(C(=O)NC[C@@H]4COCCO4)c2C)CC3)cn1 [Example 76, N-[(2R)-1,4-dioxan-2-ylmethyl]-8-methyl-2-[(6-methylpyridin-3-yl)methyl]-4,5-dihydro-2H-furo[2,3-g]indazole-7-carboxamide]
98 | Cc1c(C(=O)NCC2CC(F)(F)CO2)oc2c1-c1nn(C[C@H]3COCCO3)cc1C1(CC1)C2 (mixture of isomers) [Example 197]
19 | Cc1c(C(=O)NC[C@@H]2COCCO2)oc2c1-c1nn(Cc3ccncc3)cc1CC2 [Example 47, N-[(2R)-1,4-dioxan-2-ylmethyl]-8-methyl-2-(pyridin-4-ylmethyl)-4,5-dihydro-2H-furo[2,3-g]indazole-7-carboxamide]
10 | O=C(NC[C@@H]1COCCO1)c1oc2c(c1C(F)(F)F)-c1nn(CC3CC3)cc1CC2 [Example 282, 2-(cyclopropylmethyl)-N-{[(2R)-1,4-dioxan-2-yl]methyl}-8-(trifluoromethyl)-4,5-dihydro-2H-furo[2,3-g]indazole-7-carboxamide]
6 | O=C(NC[C@@H]1CCCO1)c1oc2c(c1C(F)(F)F)-c1nn(Cc3ccncc3)cc1C1(CC1)C2 [Example 217, 2′-(Pyridin-4-ylmethyl)-N-[(2S)-tetrahydrofuran-2-ylmethyl]-8′-(trifluormethyl)-2′,5′-dihydrospiro[cyclopropan-1,4′-furo[2,3-g]indazol]-7′-carboxamide]
110 | Cc1c(C(=O)NC[C@@H]2COCCO2)oc2c1-c1nn(C[C@H]3COCCO3)cc1C1(CCC1)C2 [Example 145]

Continued, molecule first:

SMILES | IC50 [nM]
Cc1c(C(=O)NC[C@@H]2CCCO2)oc2c1-c1nn(Cc3noc(C4CC4)n3)cc1CC2 [Example 137, 2-[(5-cyclopropyl-1,2,4-oxadiazol-3-yl)methyl]-8-methyl-N-[(2S)-tetrahydrofuran-2-ylmethyl]-4,5-dihydro-2H-furo[2,3-g]indazole-7-carboxamide] | 45
C[C@@H]1Cc2oc(C(=O)NC[C@@H]3CCCO3)c(C(F)(F)F)c2-c2nn(CC3CCN(C(=O)C4CC4)CC3)cc21 (single isomer, unassigned) [Example 290, (4R or 4S)-2-{[1-(cyclopropanecarbonyl)piperidin-4-yl]methyl}-4-methyl-N-{[(2S)-oxolan-2-yl]methyl}-8-(trifluoromethyl)-4,5-dihydro-2H-furo[2,3-g]indazole-7-carboxamide] | 4
C[C@@H]1Cc2oc(C(=O)NCc3nccs3)c(C(F)(F)F)c2-c2nn(C[C@H]3COCCO3)cc21 (single isomer, unassigned) [Example 259, (4R or 4S)-2-{[(2S)-1,4-dioxan-2-yl]methyl}-4-methyl-N-[(1,3-thiazol-2-yl)methyl]-8-(trifluoromethyl)-4,5-dihydro-2H-furo[2,3-g]indazole-7-carboxamide] | 5
Cc1c(C(=O)NCC2CN(C)CCO2)oc2c1-c1nn(Cc3ccccn3)cc1CC2 (single isomer, unassigned) [Example 38-1] | 1420
Cc1c(C(=O)NCC2(F)COC2)oc2c1-c1nn(Cc3ccccn3)cc1CC2 [Example 37, N-[(3-fluorooxetan-3-yl)methyl]-8-methyl-2-(pyridin-2-ylmethyl)-4,5-dihydro-2H-furo[2,3-g]indazole-7-carboxamide] | 9500
Cc1c(C(=O)NCCN2CCN(C)CC2)oc2c1-c1nn(Cc3ccccn3)cc1CC2 [Example 4, 8-methyl-N-[2-(4-methylpiperazin-1-yl)ethyl]-2-(pyridin-2-ylmethyl)-4,5-dihydro-2H-furo[2,3-g]indazole-7-carboxamide] | 1620
Cc1c(C(=O)NCC2CCO2)oc2c1-c1nn(Cc3ccccn3)cc1CC2 (racemic) [Example 35, 8-methyl-N-[(2R/S)-oxetan-2-ylmethyl]-2-(pyridin-2-ylmethyl)-4,5-dihydro-2H-furo[2,3-g]indazole-7-carboxamide] | 470
C[C@@H]1Cc2oc(C(=O)NCc3cncs3)c(C(F)(F)F)c2-c2nn(C[C@H]3COCCO3)cc21 (single isomer, unassigned) [Example 316, (4R or 4S)-2-{[(2S)-1,4-dioxan-2-yl]methyl}-4-methyl-N-[(1,3-thiazol-5-yl)methyl]-8-(trifluoromethyl)-4,5-dihydro-2H-furo[2,3-g]indazole-7-carboxamide] | 374
O=C(NCc1nccs1)c1oc2c(c1C(F)(F)F)-c1nn(C[C@H]3COCCO3)cc1CC2 [Example 226, 2-[(2S)-1,4-Dioxan-2-ylmethyl]-N-(1,3-thiazol-2-ylmethyl)-8-(trifluormethyl)-4,5-dihydro-2H-furo[2,3-g]indazol-7-carboxamide] | 16
Cc1c(C(=O)NCc2ncco2)oc2c1-c1nn(Cc3ccccn3)cc1CC2 [Example 32, 8-methyl-N-(1,3-oxazol-2-ylmethyl)-2-(pyridin-2-ylmethyl)-4,5-dihydro-2H-furo[2,3-g]indazole-7-carboxamide] | 150
Cc1cccc(Cn2cc3c(n2)-c2c(oc(C(=O)NCc4ncco4)c2C)CC3)n1 [Example 72, 8-methyl-2-[(6-methylpyridin-2-yl)methyl]-N-(1,3-oxazol-2-ylmethyl)-4,5-dihydro-2H-furo[2,3-g]indazole-7-carboxamide] | 240
O=C(NCc1ncco1)c1oc2c(c1C(F)(F)F)-c1nn(Cc3ccccn3)cc1C1(CCC1)C2 [Example 275, N-(1,3-Oxazol-2-ylmethyl)-2′-(pyridin-2-ylmethyl)-8′-(trifluormethyl)-2′,5′-dihydrospiro[cyclobutan-1,4′-furo[2,3-g]indazol]-7′-carboxamide] | 141
Cc1c(C(=O)NC[C@@H]2CCCO2)oc2c1-c1nn(Cc3ccc(C(F)(F)F)cn3)cc1CC2 [Example 57, 8-methyl-N-[(2S)-tetrahydrofuran-2-ylmethyl]-2-{[5-(trifluoromethyl)pyridin-2-yl]methyl}-4,5-dihydro-2H-furo[2,3-g]indazole-7-carboxamide] | 190
C[C@@H]1Cc2oc(C(=O)NC[C@@H]3COCCO3)c(C(F)(F)F)c2-c2nn(CC3CCN(C(=O)C4CC4)CC3)cc21 (single isomer, unassigned) [Example 291, (4R or 4S)-2-{[1-(cyclopropanecarbonyl)piperidin-4-yl]methyl}-N-{[(2R)-1,4-dioxan-2-yl]methyl}-4-methyl-8-(trifluoromethyl)-4,5-dihydro-2H-furo[2,3-g]indazole-7-carboxamide] | 5
Cc1c(C(=O)NCC(C)(C)O)oc2c1-c1nn(Cc3ccccn3)cc1CC2 [Example 10, N-(2-hydroxy-2-methylpropyl)-8-methyl-2-(pyridin-2-ylmethyl)-4,5-dihydro-2H-furo[2,3-g]indazole-7-carboxamide] | > 20000
C[C@@H]1Cc2oc(C(=O)NCc3cnc(C4CC4)cn3)c(C(F)(F)F)c2-c2nn(C[C@H]3COCCO3)cc21 (single isomer, unassigned) [Example 322, (4R or 4S)—N-[(5-cyclopropylpyrazin-2-yl)methyl]-2-{[(2S)-1,4-dioxan-2-yl]methyl}-4-methyl-8-(trifluoromethyl)-4,5-dihydro-2H-furo[2,3-g]indazole-7-carboxamide] | 2
Cc1ccc(Cn2cc3c(n2)-c2c(oc(C(=O)NC[C@@H]4CCCO4)c2C)CC3)cn1 [Example 75, 8-methyl-2-[(6-methylpyridin-3-yl)methyl]-N-[(2S)-tetrahydrofuran-2-ylmethyl]-4,5-dihydro-2H-furo[2,3-g]indazole-7-carboxamide] | 60
COCC(=O)N1CCC(Cn2cc3c(n2)-c2c(oc(C(=O)NC[C@@H]4CCCO4)c2C(F)(F)F)CC3)CC1 [Example 284, 2-{[1-(methoxyacetyl)piperidin-4-yl]methyl}-N-{[(2S)-oxolan-2-yl]methyl}-8-(trifluoromethyl)-4,5-dihydro-2H-furo[2,3-g]indazole-7-carboxamide] | 86
